Assay: xn = mol fraction of the nth substance listed
Details: 101 kPa

O + CCCC[N+]1(C)CCCC1.N#C[S-]
x1 = 1
Details | viscosity [mPa·s]
298.15 K | 0.89
308.15 K | 0.74
318.15 K | 0.63
328.15 K | 0.56
338.15 K | 0.5
348.15 K | 0.43

O + CCCC[N+]1(C)CCCCC1.N#C[S-]
x1 = 1
Details | viscosity [mPa·s]
328.15 K | 0.56
338.15 K | 0.5
348.15 K | 0.43

O + CCCC[n+]1ccc(C)cc1.N#C[S-]
x1 = 1
Details | viscosity [mPa·s]
298.15 K | 0.89
308.15 K | 0.74
318.15 K | 0.63
328.15 K | 0.56
338.15 K | 0.5
348.15 K | 0.43

O + CCCC[n+]1ccn(C)c1.N#C[S-]
x1 = 1
Details | viscosity [mPa·s]
308.15 K | 0.74
318.15 K | 0.63
328.15 K | 0.56
348.15 K | 0.46

CCCC[N+]1(C)CCCC1.N#C[S-] + O
viscosity [mPa·s]
Details | x2 = 0 | x2 = 0.0853 | x2 = 0.2203 | x2 = 0.3555 | x2 = 0.5252 | x2 = 0.6634 | x2 = 0.783 | x2 = 0.8623 | x2 = 0.9657
298.15 K | 109 | 92 | – | 49.3 | – | 17.6 | – | – | 1.74
308.15 K | 70.4 | 59.4 | 45.2 | 33.2 | – | – | 7.27 | – | –
318.15 K | 47.8 | 40.3 | – | 23.5 | 14.38 | 9.15 | 5.46 | – | –
328.15 K | 34.1 | – | 23 | 17.3 | 10.87 | 7.02 | – | 2.54 | 0.92
338.15 K | – | 21.5 | – | 13.08 | 8.49 | 5.53 | – | 2.02 | –
348.15 K | 19.3 | 16.5 | – | 10.21 | 6.81 | – | 2.65 | 1.67 | –

CCCC[N+]1(C)CCCCC1.N#C[S-] + O
viscosity [mPa·s]
Details | x2 = 0 | x2 = 0.2774 | x2 = 0.3741 | x2 = 0.5111 | x2 = 0.6302 | x2 = 0.7172 | x2 = 0.8248 | x2 = 0.9351
318.15 K | 265 | 94.9 | – | 33 | 19.13 | 12.13 | 6.02 | 1.97
328.15 K | 152 | – | – | 22.33 | – | 8.79 | 4.47 | 1.57
338.15 K | 93.5 | – | 25.6 | 15.96 | 9.94 | 6.6 | 3.41 | 1.28
348.15 K | 60.5 | 27.83 | 18.51 | – | 7.6 | 5.08 | 2.71 | 1.07
